Test results published in patent US20250312352A1, “GLP-1R MODULATING COMPOUNDS” (Gilead Sciences, Inc., priority 2021, published 2025).

Molecular target: T1, GLP-1R (Homo sapiens, UniProt P43220)
T1 construct: host or cells: CHO cells
Experiment: GLP-1R activation cAMP assay (Assay 1 or Assay 2)
Format: cell-based
Settings: cAMP increase in CHO cells stably expressing GLP-1R; compounds run on one of the two cAMP assays
Outline: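 CHO cells stably expressing human GLP-1R were incubated 1 h in HBSS/20 mM HEPES/0.1% BSA, then exposed to 10-point agonist dilutions for 30 min at 37 °C. cAMP increase was measured with an HTRF Gs dynamic kit; EC50 from sigmoidal fit of response versus log concentration.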

T1 sequence (P43220 24-463): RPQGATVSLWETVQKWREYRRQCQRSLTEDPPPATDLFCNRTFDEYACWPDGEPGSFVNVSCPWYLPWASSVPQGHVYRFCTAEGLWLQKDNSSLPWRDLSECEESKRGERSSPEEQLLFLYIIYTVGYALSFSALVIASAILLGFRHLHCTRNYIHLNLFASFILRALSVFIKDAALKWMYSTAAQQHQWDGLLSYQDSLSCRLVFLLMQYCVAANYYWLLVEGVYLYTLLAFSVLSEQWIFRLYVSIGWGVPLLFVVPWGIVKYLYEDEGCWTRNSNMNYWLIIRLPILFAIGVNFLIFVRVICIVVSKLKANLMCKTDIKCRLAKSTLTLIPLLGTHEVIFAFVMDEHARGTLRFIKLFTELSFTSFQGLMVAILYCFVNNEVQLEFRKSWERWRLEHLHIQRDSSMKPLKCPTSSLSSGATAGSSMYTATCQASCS

| SMILES | EC50 [nM] |
| --- | --- |
| O=C(O)c1ccc2nc(Cc3cc(F)c(-c4cccc(OCc5cnc(Cl)s5)n4)cc3F)n(C[C@@H]3CCO3)c2c1 [Example 20, (S)-2-(4-(6-((2-chlorothiazol-5-yl)methoxy)pyridin-2-yl)-2,5-difluorobenzyl)-1-(oxetan-2-ylmethyl)-1H-benzo[d]imidazole-6-carboxylic acid] | 0.33 |
| COCCn1c(Cc2cc(F)c(-c3cccc(OCc4ccc(C#CC5CN(C(=O)OC)C5)cc4F)n3)cc2F)nc2ccc(C(=O)O)cc21 [Example 235, 2-[[2,5-difluoro-4-[6-[[2-fluoro-4-[2-(1-methoxycarbonylazetidin-3-yl)ethynyl]phenyl]methoxy]-2-pyridyl]phenyl]methyl]-3-(2-methoxyethyl)benzimidazole-5-carboxylic acid] | 1.1 |
| Cc1cn(C)nc1COc1cccc(-c2cc(F)c(Cc3nc4ccc(C(=O)O)cc4n3C[C@@H]3CCO3)cc2F)n1 [Example 77, (S)-2-(4-(6-((1,4-dimethyl-1H-pyrazol-3-yl)methoxy)pyridin-2-yl)-2,5-difluorobenzyl)-1-(oxetan-2-ylmethyl)-1H-benzo[d]imidazole-6-carboxylic acid] | 6.32 |
| COc1ncc(C#Cc2cnc(COc3cccc(-c4cc(F)c(Cc5nc6ccc(C(=O)O)cc6n5C[C@@H]5CCO5)cc4F)n3)c(F)c2)s1 [Example 294, (S)-2-(2,5-difluoro-4-(6-((3-fluoro-5-((2-methoxythiazol-5-yl)ethynyl)pyridin-2-yl)methoxy)pyridin-2-yl)benzyl)-1-(oxetan-2-ylmethyl)-1H-benzo[d]imidazole-6-carboxylic acid] | 0.182 |
| O=C(O)c1ccc2nc(Cc3cc(F)c(-c4cccc(OCc5cnc(C(=O)NCC(F)F)cc5Cl)n4)cc3F)n(C[C@@H]3CCO3)c2c1 [Example 192, (S)-2-(4-(6-((4-chloro-6-((2,2-difluoroethyl)carbamoyl)pyridin-3-yl)methoxy)pyridin-2-yl)-2,5-difluorobenzyl)-1-(oxetan-2-ylmethyl)-1H-benzo[d]imidazole-6-carboxylic acid] | 0.32 |
| COCCn1c(Cc2cc(F)c(-c3cccc(OCc4ccc(-c5cnn(C6CC6)c5)cc4F)n3)cc2F)nc2ccc(C(=O)O)cc21 [Example 225, 2-(4-(6-((4-(1-cyclopropyl-1H-pyrazol-4-yl)-2-fluorobenzyl)oxy)pyridin-2-yl)-2,5-difluorobenzyl)-1-(2-methoxyethyl)-1H-benzo[d]imidazole-6-carboxylic acid] | 0.7 |
| N#Cc1ccc(COc2cccc(-c3cc(F)c(Cc4nc5ccc(C(=O)O)cc5n4C[C@@H]4CCO4)cc3F)n2)o1 [Example 14, (S)-2-(4-(6-((5-cyanofuran-2-yl)methoxy)pyridin-2-yl)-2,5-difluorobenzyl)-1-(oxetan-2-ylmethyl)-1H-benzo[d]imidazole-6-carboxylic acid] | 5.68 |
| CC1(C)COC[C@H]1n1c(Cc2cc(F)c(-c3cccc(OCc4nnc(C(F)(F)F)s4)n3)cc2F)nc2ccc(C(=O)O)cc21 [Example 433, (S)-2-(2,5-difluoro-4-(6-((5-(trifluoromethyl)-1,3,4-thiadiazol-2-yl)methoxy)pyridin-2-yl)benzyl)-1-(4,4-dimethyltetrahydrofuran-3-yl)-1H-benzo[d]imidazole-6-carboxylic acid] | 0.413 |
| CNC(=O)c1cc(Cl)c(COc2cccc(-c3cc(F)c(Cc4nc5c(F)cc(C(=O)O)cc5n4C[C@@H](C)OC)cc3F)n2)cn1 [Example 393, (R)-2-(4-(6-((4-chloro-6-(methylcarbamoyl)pyridin-3-yl)methoxy)pyridin-2-yl)-2,5-difluorobenzyl)-4-fluoro-1-(2-methoxypropyl)-1H-benzo[d]imidazole-6-carboxylic acid] | 0.777 |
| O=C(O)c1ccc2nc(Cc3cc(F)c(-c4cccc(OCc5ncc(-c6cnn(CC7CC7)c6)s5)n4)cc3F)n(C[C@@H]3CCO3)c2c1 [Example 88, (S)-2-(4-(6-((5-(1-(cyclopropylmethyl)-1H-pyrazol-4-yl)thiazol-2-yl)methoxy)pyridin-2-yl)-2,5-difluorobenzyl)-1-(oxetan-2-ylmethyl)-1H-benzo[d]imidazole-6-carboxylic acid] | 0.44 |
| O=C(O)c1ccc2nc(Cc3cc(F)c(-c4cccc(OCc5ccc(-c6cnc(C7CC7)o6)cc5F)n4)cc3F)n(C[C@@H]3CCO3)c2c1 [Example 160, (S)-2-(4-(6-((4-(2-cyclopropyloxazol-5-yl)-2-fluorobenzyl)oxy)pyridin-2-yl)-2,5-difluorobenzyl)-1-(oxetan-2-ylmethyl)-1H-benzo[d]imidazole-6-carboxylic acid] | 0.2 |
| CC1(C)COC[C@H]1n1c(Cc2cc(F)c(-c3cccc(OCc4ncc(C(F)(F)F)s4)n3)cc2F)nc2ccc(C(=O)O)cc21 [Example 414, (S)-2-(2,5-difluoro-4-(6-((5-(trifluoromethyl)thiazol-2-yl)methoxy)pyridin-2-yl)benzyl)-1-(4,4-dimethyltetrahydrofuran-3-yl)-1H-benzo[d]imidazole-6-carboxylic acid] | 0.318 |
| COc1nnc(COc2nc(-c3cc(F)c(Cc4nc5c(Cl)cc(C(=O)O)cc5n4[C@@H]4COCC4(C)C)cc3F)ccc2F)s1 [Example 367, (S)-4-chloro-2-(2,5-difluoro-4-(5-fluoro-6-((5-methoxy-1,3,4-thiadiazol-2-yl)methoxy)pyridin-2-yl)benzyl)-1-(4,4-dimethyltetrahydrofuran-3-yl)-1H-benzo[d]imidazole-6-carboxylic acid] | 0.235 |
| CC1(C#Cc2nnc(COc3cccc(-c4cc(F)c(Cc5nc6ccc(C(=O)O)cc6n5C[C@@H]5CCO5)cc4F)n3)s2)CC1 [Example 321, (S)-2-(2,5-difluoro-4-(6-((5-((1-methylcyclopropyl)ethynyl)-1,3,4-thiadiazol-2-yl)methoxy)pyridin-2-yl)benzyl)-1-(oxetan-2-ylmethyl)-1H-benzo[d]imidazole-6-carboxylic acid] | 0.246 |
| O=C(O)c1ccc2nc(Cc3cc(F)c(-c4cccc(OCc5nnc(OC6CCC6)s5)n4)cc3F)n(C[C@@H]3CCO3)c2c1 [Example 344, (S)-2-(4-(6-((5-cyclobutoxy-1,3,4-thiadiazol-2-yl)methoxy)pyridin-2-yl)-2,5-difluorobenzyl)-1-(oxetan-2-ylmethyl)-1H-benzo[d]imidazole-6-carboxylic acid] | 0.055 |
| O=C(O)c1ccc2nc(Cc3cc(F)c(-c4cccc(OCc5ccc(Cl)s5)n4)cc3F)n(C[C@@H]3CCO3)c2c1 [Example 317, (S)-2-(4-(6-((5-chlorothiophen-2-yl)methoxy)pyridin-2-yl)-2,5-difluorobenzyl)-1-(oxetan-2-ylmethyl)-1H-benzo[d]imidazole-6-carboxylic acid] | 0.125 |

Next, values leading:

| EC50 [nM] | SMILES |
| --- | --- |
| 0.024 | N#Cc1cnc(COc2cccc(-c3cc(F)c(Cc4nc5c(F)cc(C(=O)O)cc5n4C[C@@H]4CCO4)cc3F)n2)s1 [Example 372, 2-[[4-[6-[(5-cyanothiazol-2-yl)methoxy]-2-pyridyl]-2,5-difluoro-phenyl]methyl]-7-fluoro-3-[[(2S)-oxetan-2-yl]methyl]benzimidazole-5-carboxylic acid] |
| 0.08 | O=C(O)c1ccc2nc(Cc3cc(F)c(-c4cccc(OCc5ccc(-c6cn(C7CC7)nn6)cc5F)n4)cc3F)n(C[C@@H]3CCO3)c2c1 [Example 214, (S)-2-(4-(6-((4-(1-cyclopropyl-1H-1,2,3-triazol-4-yl)-2-fluorobenzyl)oxy)pyridin-2-yl)-2,5-difluorobenzyl)-1-(oxetan-2-ylmethyl)-1H-benzo[d]imidazole-6-carboxylic acid] |
| 0.08 | O=C(O)c1ccc2nc(Cc3cc(F)c(-c4cccc(OCc5cnc(-c6cnn(C7CC7)c6)cc5F)n4)cc3F)n(C[C@@H]3CCO3)c2c1 [Example 161, (S)-2-(4-(6-((6-(1-cyclopropyl-1H-pyrazol-4-yl)-4-fluoropyridin-3-yl)methoxy)pyridin-2-yl)-2,5-difluorobenzyl)-1-(oxetan-2-ylmethyl)-1H-benzo[d]imidazole-6-carboxylic acid] |
| 0.07 | Cc1nc(COc2cccc(-c3cc(F)c(Cc4nc5ccc(C(=O)O)cc5n4C[C@H]4CCO4)cc3F)n2)sc1-c1cnn(C)c1 [Example 104, (R)-2-(2,5-difluoro-4-(6-((4-methyl-5-(1-methyl-1H-pyrazol-4-yl)thiazol-2-yl)methoxy)pyridin-2-yl)benzyl)-1-(oxetan-2-ylmethyl)-1H-benzo[d]imidazole-6-carboxylic acid] |
| 0.093 | CC1(C)COC[C@H]1n1c(Cc2cc(F)c(-c3cccc(OCc4nnc(C(F)F)s4)n3)cc2F)nc2ccc(C(=O)O)cc21 [Example 432, (S)-2-(4-(6-((5-(difluoromethyl)-1,3,4-thiadiazol-2-yl)methoxy)pyridin-2-yl)-2,5-difluorobenzyl)-1-(4,4-dimethyltetrahydrofuran-3-yl)-1H-benzo[d]imidazole-6-carboxylic acid] |
| 0.032 | O=C(O)c1cc(F)c2nc(Cc3cc(F)c(-c4ccc(F)c(OCc5ncc(C(F)(F)F)s5)n4)cc3F)n(C[C@@H]3CCO3)c2c1 [Example 313, (S)-2-(2,5-difluoro-4-(5-fluoro-6-((5-(trifluoromethyl)thiazol-2-yl)methoxy)pyridin-2-yl)benzyl)-4-fluoro-1-(oxetan-2-ylmethyl)-1H-benzo[d]imidazole-6-carboxylic acid] |
| 0.08 | N#CC1(NC(=O)c2ccc(COc3cccc(-c4cc(F)c(Cc5nc6c(F)cc(C(=O)O)cc6n5C[C@@H]5CCO5)cc4F)n3)cn2)CC1 [Example 197, (S)-2-(4-(6-((6-((1-cyanocyclopropyl)carbamoyl)pyridin-3-yl)methoxy)pyridin-2-yl)-2,5-difluorobenzyl)-4-fluoro-1-(oxetan-2-ylmethyl)-1H-benzo[d]imidazole-6-carboxylic acid] |
| 0.06 | O=C(O)c1ccc2nc(Cc3cc(F)c(-c4cccc(OCc5ncc(-c6cnco6)s5)n4)cc3F)n(C[C@@H]3CCO3)c2c1 [Example 93, (S)-2-(2,5-difluoro-4-(6-((5-(oxazol-5-yl)thiazol-2-yl)methoxy)pyridin-2-yl)benzyl)-1-(oxetan-2-ylmethyl)-1H-benzo[d]imidazole-6-carboxylic acid] |
